“And” between values parts separate entries of the source, which are not always exact repeats. Identical values can stand only once.
Assays:
[1] = In vitro microsomal stability, rat; assay type: in vitro ADME; details: for Microsomal stability, % remaining: Rat microsomes
[2] = Pharmacokinetic studies in Beagle dogs; assay type: in vivo
[3] = test system: SJSA-1 xenograft tumors; assay: In vivo efficacy, SJSA-1 xenograft model (tumor volume); design: species or system C.B-17 SCID mice; details: PO 300 mg/kg
Method: SJSA-1 tumor cells were harvested with Trypsin (0.05%)-EDTA (0.53 mM) (GIBCO™, Invitrogen Corp.), growth medium added and cells placed on ice. A cell sample was mixed 1:1 with Trypan Blue (GIBCO™, Invitrogen Corp.) and counted on a hemocytometer to determine the number of live/dead cells. Cells were washed once with 1×PBS (GIBCO™, Invitrogen Corp.) and resuspended in PBS. For Matrigel injections, after washing in PBS, cells are resuspended in an ice cold mixture of 1:1 PBS and Matrigel (BD Biosciences, Invitrogen Corp.) for a final Matrigel protein concentration of 5 mg/ml. SJSA-1 tumors were inoculated into C.B-17 SCID mice at 5×10^6 cells in 0.1 ml with Matrigel. Cells were injected s.c. into the flank region of each mouse using a 27 gauge needle.
The size of tumors growing in the mice was measured in two dimensions using calipers. Tumor volume (mm^3)=(A×B2)/2 where A and B are the tumor length and width (in mm), respectively. During treatment, tumor volume and body weight was measured three times a week. […] Mice were kept for an additional 60 days for further observation of tumor growth and toxicity.
Mice with tumors within acceptable size range were randomized into treatment groups of 8 mice for experimental compounds and 10 mice for the Control group. Experimental compounds were given orally, once per day for 2-3 weeks.

[4] = test system: LnCAP human xenograft tumors; details: mice bearing LnCAP xenograft, oral 200-300 mg/kg daily or twice a day, 2 weeks; cited from earlier work
[5] = Pharmacokinetic studies in rats; assay type: in vivo, rat; details: male rat, IV 5 mg/kg
Method: Pharmacokinetic studies on MDM2 inhibitors were carried out in rat. For comparison, the MDM2 inhibitor, AT-219, was also studied.

MI-219
Microsomal stability, % remaining ([1]; 0 min): 100.00%
Microsomal stability, % remaining ([1]; 5 min): 58.19%
Microsomal stability, % remaining ([1]; 10 min): 40.59%
Microsomal stability, % remaining ([1]; 15 min): 28.11%
Microsomal stability, % remaining ([1]; 30 min): 18.61%
Microsomal stability, % remaining ([1]; 45 min): 18.42%
Microsomal stability, % remaining ([1]; 60 min): 18.38%
% of compound remaining when incubated in rat liver microsomes ([1]; Table 16, 0 min): 100%
% of compound remaining when incubated in rat liver microsomes ([1]; Table 16, 4 min): 76.6%
% of compound remaining when incubated in rat liver microsomes ([1]; Table 16, 6 min): 64.3%
% of compound remaining when incubated in rat liver microsomes ([1]; Table 16, 10 min): 57.3%
% of compound remaining when incubated in rat liver microsomes ([1]; Table 16, 15 min): 51.9%
% of compound remaining when incubated in rat liver microsomes ([1]; Table 16, 30 min): 49.3%
% of compound remaining when incubated in rat liver microsomes ([1]; Table 17, 0 min): 100%
% of compound remaining when incubated in rat liver microsomes ([1]; Table 17, 4 min): 76.6%
% of compound remaining when incubated in rat liver microsomes ([1]; Table 17, 6 min): 64.3%
% of compound remaining when incubated in rat liver microsomes ([1]; Table 17, 10 min): 57.3%
% of compound remaining when incubated in rat liver microsomes ([1]; Table 17, 15 min): 51.9%
% of compound remaining when incubated in rat liver microsomes ([1]; Table 17, 30 min): 49.3%
microsomal stability (in words) ([1]; rat liver microsomes): metabolized fairly rapidly
oral bioavailability in dogs (in words) [2]: orally bioavailable
AUC ([2]; 10 mg/kg oral dosing): 7947 ± 2396 ng·h/mL
MRT ([2]; IV 2.0 mg/kg): 1.22 h and 1.81 h and 1.87 h
Plasma Concentration ([2]; IV 2.0 mg/kg, 0.117 h, dogs and Mean): 4069 ng/mL and 7668 ng/mL
Plasma Concentration ([2]; IV 2.0 mg/kg, 0.117 h, dogs and Mean, mean): 5868 ng/mL
Plasma Concentration ([2]; IV 2.0 mg/kg, 0.20 h): 2623 ng/mL and 2272 ng/mL and 3918 ng/mL
Plasma Concentration ([2]; IV 2.0 mg/kg, 0.20 h, mean): 2938 ng/mL
Plasma Concentration ([2]; IV 2.0 mg/kg, 0.5 h): 1888 ng/mL and 1192 ng/mL and 1795 ng/mL
Plasma Concentration ([2]; IV 2.0 mg/kg, 0.5 h, mean): 1625 ng/mL
Plasma Concentration ([2]; IV 2.0 mg/kg, 1.0 h): 853 ng/mL and 704 ng/mL and 1044 ng/mL
Plasma Concentration ([2]; IV 2.0 mg/kg, 1.0 h, mean): 867 ng/mL
Plasma Concentration ([2]; IV 2.0 mg/kg, 3.0 h): 331 ng/mL and 402 ng/mL
Plasma Concentration ([2]; IV 2.0 mg/kg, 3.0 h, mean): 367 ng/mL
Plasma Concentration ([2]; IV 2.0 mg/kg, 4.0 h): 256 ng/mL and 188 ng/mL and 248 ng/mL
Plasma Concentration ([2]; IV 2.0 mg/kg, 4.0 h, mean): 231 ng/mL
Plasma Concentration ([2]; IV 2.0 mg/kg, 6.0 h): 114.3 ng/mL and 81.1 ng/mL and 119 ng/mL
Plasma Concentration ([2]; IV 2.0 mg/kg, 6.0 h, mean): 105 ng/mL
Plasma Concentration ([2]; IV 2.0 mg/kg, 8.0 h): 52.2 ng/mL and 39.7 ng/mL and 57.8 ng/mL
Plasma Concentration ([2]; IV 2.0 mg/kg, 8.0 h, mean): 49.9 ng/mL
Plasma Concentration ([2]; IV 2.0 mg/kg, 12 h): 17.9 ng/mL and 9.75 ng/mL and 19.4 ng/mL
Plasma Concentration ([2]; IV 2.0 mg/kg, 12 h, mean): 15.7 ng/mL
T½ ([2]; IV 2.0 mg/kg, dogs and Mean): 4.32 h and 3.00 h and 4.36 h
T½ ([2]; IV 2.0 mg/kg, dogs and Mean, mean): 3.90 h
MRT ([2]; IV 2.0 mg/kg, mean): 1.63 h
AUC(0-t) ([2]; PO 10 mg/kg): 9665 ng·h/mL and 5210 ng·h/mL and 8967 ng·h/mL
AUC(0-∞) ([2]; PO 10 mg/kg): 9681 ng·h/mL and 5226 ng·h/mL and 8985 ng·h/mL
Cmax ([2]; PO 10 mg/kg): 3001 ng/mL and 3560 ng/mL and 2119 ng/mL and 3323 ng/mL
F ([2]; PO 10 mg/kg): 26.1% and 26.8% and 28.6%
MRT ([2]; PO 10 mg/kg): 3.09 h and 2.71 h and 3.33 h
Tmax ([2]; PO 10 mg/kg): 0.83 h and 1.0 h and 0.5 h
Plasma Concentration ([2]; PO 10 mg/kg, 0.5 h, dogs and Mean): 2101 ng/mL and 1842 ng/mL and 3323 ng/mL
Plasma Concentration ([2]; PO 10 mg/kg, 0.5 h, dogs and Mean, mean): 2422 ng/mL
Plasma Concentration ([2]; PO 10 mg/kg, 1 h): 3560 ng/mL and 2119 ng/mL and 2999 ng/mL
Plasma Concentration ([2]; PO 10 mg/kg, 1 h, mean): 2893 ng/mL
Plasma Concentration ([2]; PO 10 mg/kg, 4 h): 483 ng/mL and 603 ng/mL and 312 ng/mL and 535 ng/mL
Plasma Concentration ([2]; PO 10 mg/kg, 24 h): 4.05 ng/mL and 3.78 ng/mL and 4.48 ng/mL
Plasma Concentration ([2]; PO 10 mg/kg, 24 h, mean): 4.10 ng/mL
T½ ([2]; PO 10 mg/kg, dogs and Mean): 2.77 h and 3.03 h and 2.81 h
T½ ([2]; PO 10 mg/kg, dogs and Mean, mean): 2.87 h
AUC(0-t) ([2]; PO 10 mg/kg, mean): 7947 ng·h/mL
AUC(0-∞) ([2]; PO 10 mg/kg, mean): 7964 ng·h/mL
MRT ([2]; PO 10 mg/kg, mean): 3.04 h
% Tumor Growth Inhib. T/C Control 750 mm^3 D27 ([3]; Exp. No. 1, SJSA-1 xenograft, D27): 44.3%
% Tumor Growth Inhib. T/C Control 750 mm^3 D24 ([3]; Exp. No. 2, SJSA-1 xenograft, D24): 30.1%
% Tumor Growth Inhib. T/C Control 750 mm^3 D29 ([3]; Exp. No. 3, SJSA-1 xenograft, D29): 15.8%
tumor growth inhibition (in words) [4]: effective tumor growth inhibition
Plasma Concentration ([5]; 0.083 hr, animals M1, M2 and Mean): 5873.30 ng/mL and 5229.30 ng/mL
Plasma Concentration ([5]; 0.083 hr, animals M1, M2 and Mean, mean): 5551.30 ng/mL
Plasma Concentration ([5]; 0.5 hr, animals and Mean): 693.45 ng/mL and 548.39 ng/mL
Plasma Concentration ([5]; 0.5 hr, animals and Mean, mean): 620.92 ng/mL
